In publication PMC12064818, “A general assay platform to study protein pharmacology using ligand-dependent structural dynamics” (Nature Communications, 2025) one finds IC50 data, which are given here for 78 compounds.

In this assay the target is T1, FLuc-C-HiBiT (Photinus pyralis, UniProt P08659).
T1 construct: firefly luciferase with C-terminal HiBiT tag, E. coli expressed
T1 sequence (P08659 whole entry, looked up): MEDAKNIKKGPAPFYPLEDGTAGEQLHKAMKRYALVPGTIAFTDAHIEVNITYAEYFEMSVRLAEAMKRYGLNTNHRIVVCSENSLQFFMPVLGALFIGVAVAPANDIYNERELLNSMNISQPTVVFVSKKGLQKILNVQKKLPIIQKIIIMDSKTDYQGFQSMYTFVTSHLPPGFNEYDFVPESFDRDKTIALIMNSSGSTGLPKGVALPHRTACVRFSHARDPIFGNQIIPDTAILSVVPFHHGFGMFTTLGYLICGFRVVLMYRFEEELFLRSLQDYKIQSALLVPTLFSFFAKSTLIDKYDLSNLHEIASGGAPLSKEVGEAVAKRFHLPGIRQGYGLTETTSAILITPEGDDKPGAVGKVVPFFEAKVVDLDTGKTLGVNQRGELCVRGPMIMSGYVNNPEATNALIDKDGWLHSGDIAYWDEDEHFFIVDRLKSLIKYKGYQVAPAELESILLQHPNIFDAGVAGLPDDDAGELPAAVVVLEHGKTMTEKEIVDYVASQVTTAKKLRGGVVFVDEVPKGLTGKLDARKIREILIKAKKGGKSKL
Description: biochemical. The note with it: enzyme activity, 10 uM ATP; read-out: IC50 or SDR50 (mM) / FLuc E.
For `O=C(O)c1ccc(-c2noc(-c3cccc(C(F)(F)F)c3)n2)cc1` [NCGC00168106-02], the IC50 was 8.81 µM.
For the compound `Cc1ccc(-n2ncc3c(NC4CCCCC4)ncnc32)cc1C` [NCGC00139081-01], the IC50 came out at 1.76 µM.
Consider `COc1ccc(-n2cc(C3=CCN(CCN4CCOCC4)CC3)cn2)cc1` [NCGC00432106-01], for which the IC50 worked out at 9.89 µM.
As to `COc1ccc(C(=O)Nc2ccccc2-c2nc3ccccc3s2)c(OC)c1` [NCGC00135640-01], the IC50 was above 30 µM.
To `Cn1ccc2c(C(=O)NCCc3c[nH]cn3)nc(-c3ccc(N4CCOCC4)cc3)cc21` [NCGC00411589-01] belongs 4.53 µM.
`CCc1cccc(NC(=O)Nc2cccc(-c3ccc(N4CCOCC4)nn3)c2)c1` [NCGC00427616-01]: the IC50 stood at 6.24 µM.
Consider `O=C(Nc1ccccc1)c1nc2c(o1)CCN(Cc1ccc(O)cc1)CC2` [NCGC00413411-01], for which the IC50 worked out at 5.08 µM.
To `COc1cccc(-c2noc(Nc3ccc4c(c3)OCCO4)n2)c1` [NCGC00422372-01] belongs 1.57 µM; to `CC(C)n1cnnc1CN(C)c1nc(N)nc2[nH]cnc12` [NCGC00449084-01], above 30 µM.
For `Cc1ccc(NC(=O)c2ccc3c(c2)N(C)C2CCCN2C3=O)cc1C` (stereo not drawn) [NCGC00452108-01], the IC50 was determined as 12.4 µM.
To `CN(C)c1cccc(C(=O)Nc2ccc3c(N4CCOCC4)ncnc3c2)c1` [NCGC00425557-01] belongs 9.89 µM.
To `OCC1(CC2CC2)CCCN(c2nc(-c3ccccc3)no2)C1` (stereo not drawn) [NCGC00440394-01] belongs above 30 µM; to `CN(Cc1nccs1)c1ccc(-c2nc(-c3ccccc3F)no2)cn1` [NCGC00425298-01], 9.89 µM; to `CN1CCCN(C(=O)Nc2ccc3c(c2)OCCO3)c2ccccc21` [NCGC00470832-01], 9.89 µM.
With `N#Cc1ccc(C(=O)Nc2ccccc2-c2nc3ccccc3s2)c(F)c1` [NCGC00103058-01], the IC50 is above 30 µM.
On to `c1ccc(Nc2cc3c(cn2)CN(Cc2ccsc2)CCN3)cc1` [NCGC00411091-01], for which the IC50 was determined as 14.3 µM.
To `CN1CCN(c2ccc(-c3cccc(N)c3)nn2)CC1` [NCGC00432705-01] belongs 6.24 µM; to `O=C(NCCC1CCCCC1)c1c[nH]c2ncccc12` [NCGC00480521-01], 18 µM.
To `COc1cccc(-c2noc(COc3ccccc3Cl)n2)c1` [NCGC00115123-01] belongs 11.1 µM; to `O=C(NCc1ccco1)Nc1cccc(-c2ccc(N3CCCC3)nn2)c1` [NCGC00427562-01], 9.89 µM; to `CC(=O)N1CCCN(c2ccc(-c3nc(-c4ccccc4F)no3)cn2)CC1` [NCGC00426241-01], 15.7 µM.
Next, `COc1ccc(C(=O)COC(=O)CCCC(=O)Nc2ccc(C(C)=O)cc2)cc1` [NCGC00100762-01]: 9.89 µM.
`Cc1nnc(SCc2ccccc2)c2cc3sccc3n12` [NCGC00122277-01]: the IC50 is 14 µM.
To `Cc1ccc(CNC(=O)c2ccc3c(c2)CN(Cc2cnn(C)c2C)CCO3)cc1` [NCGC00426362-01] belongs above 30 µM.
Turning to `Cc1ccc(-n2ncc3c(N4CCCCC4)nc(NCCCO)nc32)cc1` [NCGC00652354-01], the IC50 was above 30 µM.
Next, `O=C(O)c1cccc(-c2noc(-c3ccc(Cl)cc3)n2)c1` [NCGC00168764-01]: 0.00221 µM; `Cc1ccc(-c2nc3ccccc3s2)cc1NC(=O)COc1ccccc1` [NCGC00098596-01]: above 30 µM.
`CC(=O)Nc1ccc(NC(=O)c2cc(-c3ccc4c(c3)OCCO4)on2)cc1` [NCGC00118853-01]: the IC50 came to 0.624 µM.
On to `CCOc1ccccc1NC(=O)Nc1cccc(-c2ccc(N3CCOCC3)nn2)c1` [NCGC00427574-01], for which the IC50 came out at 3.94 µM.
To `Cc1noc(C)c1CN1CCc2nc(C(=O)Nc3ccccc3)oc2CC1` [NCGC00413386-01] belongs above 30 µM; to `COc1ccc(-n2nc(C)c([C@@H]3C=C[C@@H](NC(=O)Nc4cccc(C#N)c4)C3)c2C)cc1` [NCGC00400336-01], 18 µM.
On to `CCc1noc(-c2nc(-c3ccccc3C)no2)n1` [NCGC00450081-01], for which the IC50 is above 30 µM.
In the case of `CCOc1ccc(-n2nc(CO)c(C(=O)NCc3ccccn3)n2)cc1` [NCGC00117131-01], the IC50 was found to be 11.1 µM.
With `CN1CCN(c2ccc(-c3cccc(NC(=O)C4CCCCC4)c3)nn2)CC1` [NCGC00427550-01], the IC50 stood at 8.81 µM.
Consider `COc1cccc2cc(C(=O)Nc3ccc(CC(=O)O)cc3)c(=O)oc12` [NCGC00102789-01], for which the IC50 came out at 3.13 µM.
Consider `O=C(Nc1cccc(F)c1)Nc1ccc2n(c1=O)C[C@H]1C[C@@H]2CN(C(=O)c2ccc(F)cc2)C1` [NCGC00398007-01], for which the IC50 was found to be 7 µM.
`COCCNc1oc(-c2ccc(OC)cc2)nc1C#N` [NCGC00101301-01]: the IC50 was found to be 12.4 µM.
In the case of `Cc1ccccc1CCNC(=O)c1ccc2c(c1)nc1n2CCOC1` [NCGC00133426-01], the IC50 was 4.95 µM.
To `Cc1ccc(C2=Nc3cc(Cl)ccc3NC(c3ccccc3)=N2)cc1` [NCGC00116648-01] belongs above 30 µM; to `Cc1cc2c(c(-c3nc4ccccc4s3)c1)OC(CNC(=O)CCc1cccnc1)C2` (stereo not drawn) [NCGC00239520-01], 17.6 µM.
To `COc1ccc(C(=O)Nc2cc(C(C)C)c(O)c([S+](=O)([O-])c3ccc(Cl)cc3)c2C)cc1` [NCGC00102536-01] belongs 12.4 µM; to `COc1ccc(-c2cc(N3CCCC(NC(=O)c4cccc5[nH]ccc45)C3)[nH]n2)cc1` (stereo not drawn) [NCGC00437654-01], 14 µM; to `Fc1cccc(Nc2nc(-c3ccccc3)no2)c1` [NCGC00422294-01], 7 µM.
As for `CN1c2cc(C(=O)Nc3cccc(Cl)c3)ccc2C(=O)N2CCCCCC21` (stereo not drawn) [NCGC00452209-01], the IC50 was determined as 17.6 µM.
To `COc1ccc(-c2nc3ccccc3o2)cc1NC(=O)c1cccnc1` [NCGC00103240-01] belongs 12.4 µM; to `COc1ccc(-c2cn3nc(SCC(=O)Nc4cc(C)cc(C)c4)ccc3n2)cc1` [NCGC00134460-01], 5.56 µM.
Next, `Cc1ccccc1Cn1cccc(C(=O)Nc2nc3ccccc3s2)c1=O` [NCGC00134725-01]: 0.881 µM.
On to `C[C@@H]1CN(c2cnc3ccccc3n2)CC[C@@]1(O)C1CCC1` [NCGC00441645-01], for which the IC50 came out at 11.1 µM.
For `COc1cccc(C(=O)Nc2ccc(-c3nc4ccc(C)cc4s3)cc2)c1OC` [NCGC00134693-01], the IC50 was above 30 µM.
To `COc1cccc(C(=O)Nc2ccc(O)c(-c3nc4ccccc4s3)c2)c1` [NCGC00594707-01] belongs above 30 µM.
To `CCN1CCN(c2csc3ccc(Cl)cc3c2=O)CC1` [NCGC00132328-01] belongs 12.4 µM; to `CCOc1ccc(-c2cc(CCCC(=O)NCCc3ccc(OCC)c(OCC)c3)no2)cc1` [NCGC00110850-01], 3.51 µM.
To `CCN1CCN(c2ccc(-c3cccc(N)c3)nn2)CC1` [NCGC00432707-01] belongs 9.89 µM; to `OC1CN(Cc2ccc(-c3cnc4c(OCc5ccccc5)nccn34)cc2)C1` [NCGC00414051-01], 20.2 µM.
With `Cc1ccc(NC(=O)c2ccc(CN3C(=O)NC4(CCOCC4)C3=O)cc2)cc1C` [NCGC00454605-01], the IC50 is 11.1 µM.
Take `COc1ccc(NC(=O)c2cc3c(=O)[nH]c(C)cn3n2)cc1OC` [NCGC00453925-01]: the IC50 was found to be 9.89 µM.
Next, `CCCCCc1nn2cc(-c3ccccc3)nc2s1` [NCGC00117458-01]: 0.624 µM; `COc1ccc(C(=O)NC2CCCN(c3cc(-c4ccc(Cl)cc4)n[nH]3)C2)cc1OC` (stereo not drawn) [NCGC00437414-01]: 6.24 µM.
For `COc1ccc(-c2noc(-c3ccc(C)cc3Cl)n2)cc1OC` [NCGC00102273-01], the IC50 worked out at 1.24 µM.
Take `CNC(=O)c1cccc(-c2cnc(NC(=O)c3cn(C)cn3)c3c2CCO3)c1` [NCGC00412729-01]: the IC50 was found to be 20.2 µM.
For the compound `CC1CCCCN1c1ncnc2c1cnn2-c1ccccc1` (stereo not drawn) [NCGC00605414-01], the IC50 is 1.11 µM.
Next, `Cc1c(NC(=O)Cc2ccccc2)cccc1-c1nc2ccccc2s1` [NCGC00595047-01]: 0.7 µM; `CC(C)Oc1ccc(C(=O)Nc2nnc3n2CCS3)cc1` [NCGC00134921-01]: 17.6 µM.
Regarding `COc1cc(-c2nc3ccccc3s2)ccc1O` [NCGC00390758-02], the IC50 stood at 11.1 µM.
To `c1ccc2sc(-c3cc4c(c(OC5CCOC5)c3)OCCN(Cc3cccn3-c3nccs3)C4)nc2c1` (stereo not drawn) [NCGC00240062-01] belongs above 30 µM; to `CN1CCN(C(=O)COc2ccc(-c3nc4ccccc4s3)cc2)CC1` [NCGC00042506-01], 0.495 µM.
Regarding `CCN1c2cc(C(=O)Nc3ccc4c(c3)OCCO4)ccc2C(=O)N2CCCC21` (stereo not drawn) [NCGC00452150-01], the IC50 is 11.1 µM.
In the case of `Fc1ccc(-n2ncc3c(N4CCC(Cc5ccccc5)CC4)ncnc32)cc1` [NCGC00139053-01], the IC50 was above 30 µM.
Turning to `Cc1ccc(NC(=O)c2ccc3c(c2)N(C)C2CCCN2C3=O)cc1F` (stereo not drawn) [NCGC00452116-01], the IC50 came out at 8.81 µM.
With `COc1ccc(OCC(=O)Nc2ccc(O)c(-c3nc4ccccc4s3)c2)cc1` [NCGC00099132-01], the IC50 is above 30 µM.
With `Fc1ccccc1-c1nc(-c2ccccc2)no1` [NCGC00058026-03], the IC50 was 1.57 µM.
`COc1ccc(CCNc2nc3ccccc3c3nc(-c4cccc(C)c4)nn23)cc1OC` [NCGC00112564-01]: the IC50 was determined as 11.1 µM.
Next, `Fc1ccc(Cc2cn3cc(-c4ccccc4)nc3s2)cc1` [NCGC00102102-01]: 0.442 µM; `N#Cc1c(-n2ncnc2-c2ccccc2Cl)sc2c1CCCCC2` [NCGC00099372-01]: 2.21 µM; `COc1cccc(C(=O)Nc2ccccc2-c2nc3ccccc3s2)c1` [NCGC00102557-01]: above 30 µM.
As for `CCCNC(=O)Cn1c(C)ccc(NC(=O)Nc2ccc(OC)cc2)c1=O` [NCGC00430826-01], the IC50 amounted to 6.24 µM.
Next, `Cc1c(Cl)cccc1-n1nnc(-c2nc(-c3ccc4c(c3)OCO4)no2)c1C` [NCGC00128638-01]: 11.1 µM; `COc1ccc(C(=O)NCCn2ccn3nc(-c4ccc(C)cc4C)cc3c2=O)c(C)c1` [NCGC00456977-01]: 4.95 µM.
